Measured values from patent US9492453B2 (priority 2007, dated 2016).
Where two headings read alike, the source gives them in different places.

What was measured:
[1] = Human dose prediction (estimated human pharmacokinetic parameters); settings: plasma; from rat and dog Vss corrected by Fu, human/Fu (rat or dog); read-out: Human Vss (Volume of Distribution at Steady State), estimated
AKT1 (PKBα) = AKT1 (PKBα) (Homo sapiens (Human), UniProt P31749); settings: read-out: In vitro PKBα Mean IC50, AKT1/PKBα active enzyme, Caliper LabChip LC3000
PKB (Akt) = settings: read-out: Cellular PKB Mean IC50; MDA-MB-468 cells, phosphorylation of Serine-9 of GSK-3β, 2 hours incubation

AKT1 (PKBα), sequence (P31749 whole entry): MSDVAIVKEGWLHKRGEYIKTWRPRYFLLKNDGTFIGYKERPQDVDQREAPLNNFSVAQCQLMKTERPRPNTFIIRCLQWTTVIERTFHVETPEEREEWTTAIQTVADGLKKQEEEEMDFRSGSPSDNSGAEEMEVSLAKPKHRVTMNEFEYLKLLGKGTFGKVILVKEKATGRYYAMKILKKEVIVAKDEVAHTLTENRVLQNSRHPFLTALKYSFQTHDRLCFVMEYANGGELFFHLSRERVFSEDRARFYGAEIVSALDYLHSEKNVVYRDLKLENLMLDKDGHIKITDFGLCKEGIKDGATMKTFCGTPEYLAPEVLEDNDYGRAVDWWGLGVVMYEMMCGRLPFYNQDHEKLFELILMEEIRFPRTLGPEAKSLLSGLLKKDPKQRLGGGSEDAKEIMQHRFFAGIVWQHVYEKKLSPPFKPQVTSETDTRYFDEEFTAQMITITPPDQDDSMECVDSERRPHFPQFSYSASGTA

SMILES	Vd [1] [L/kg]	IC50 (AKT1 (PKBα)) [nM]	IC50 (PKB (Akt)) [nM]	IC50 (AKT1 (PKBα); tested once only) [nM]
NC1(C(=O)N[C@@H](CCO)c2ccc(Cl)cc2)CCN(c2ncnc3[nH]ccc23)CC1 [Example 9, (S)-4-amino-N-(1-(4-chlorophenyl)-3-hydroxypropyl)-1-(7H-pyrrolo[2,3-d]pyrimidin-4-yl)piperidine-4-carboxamide]	3.3	–	–	–
NC1(C(=O)N[C@@H](CCN2CCOCC2)c2ccc(Cl)cc2)CCN(c2ncnc3[nH]ccc23)CC1 [Example 51, 4-amino-N-[(1S)-1-(4-chlorophenyl)-3-morpholin-4-ylpropyl]-1-(7H-pyrrolo[2,3-d]pyrimidin-4-yl)piperidine-4-carboxamide]	–	10	310	–
NC1(C(=O)N[C@@H](CCN2CCNCC2)c2ccc(Cl)cc2)CCN(c2ncnc3[nH]ccc23)CC1 [Example 53, 4-amino-N-[(1S)-1-(4-chlorophenyl)-3-piperazin-1-ylpropyl]-1-(7H-pyrrolo[2,3-d]pyrimidin-4-yl)piperidine-4-carboxamide]	–	6.3	> 2400	–
NC1(C(=O)N[C@@H](CCn2ccnc2)c2ccc(Cl)cc2)CCN(c2ncnc3[nH]ccc23)CC1 [Example 54, 4-amino-N-[(1S)-1-(4-chlorophenyl)-3-(1H-imidazol-1-yl)propyl]-1-(7H-pyrrolo[2,3-d]pyrimidin-4-yl)piperidine-4-carboxamide]	–	3.4	180	–
NC1(C(=O)NC(Cc2ncc[nH]2)c2ccc(Cl)cc2)CCN(c2ncnc3[nH]ccc23)CC1 (stereo not drawn) [Example 59, 4-amino-N-(1-(4-chlorophenyl)-2-(1H-imidazol-2-yl)ethyl)-1-(7H-pyrrolo[2,3-d]pyrimidin-4-yl)piperidine-4-carboxamide]	–	6.3	840	–
NC1(C(=O)NC(Cn2cccn2)c2ccc(Cl)cc2)CCN(c2ncnc3[nH]ccc23)CC1 (stereo not drawn) [Example 60, 4-amino-N-[1-(4-chlorophenyl)-2-(1H-pyrazol-1-yl)ethyl]-1-(7H-pyrrolo[2,3-d]pyrimidin-4-yl)piperidine-4-carboxamide]	–	23	470	–
Cc1cc(CC(NC(=O)C2(N)CCN(c3ncnc4[nH]ccc34)CC2)c2ccc(Cl)cc2)on1 (stereo not drawn) [Example 61, 4-amino-N-[1-(4-chlorophenyl)-2-(3-methylisoxazol-5-yl)ethyl]-1-(7H-pyrrolo[2,3-d]pyrimidin-4-yl)piperidine-4-carboxamide]	–	23	850	–
NC1(C(=O)NC(Cc2nccs2)c2ccc(Cl)cc2)CCN(c2ncnc3[nH]ccc23)CC1 (stereo not drawn) [Example 62, 4-amino-N-(1-(4-chlorophenyl)-2-(thiazol-2-yl)ethyl)-1-(7H-pyrrolo[2,3-d]pyrimidin-4-yl)piperidine-4-carboxamide]	–	28	560	–
NC(=O)CC(NC(=O)C1(N)CCN(c2ncnc3[nH]ccc23)CC1)c1ccc(Cl)cc1 (stereo not drawn) [Example 66, 4-amino-N-(3-amino-1-(4-chlorophenyl)-3-oxopropyl)-1-(7H-pyrrolo[2,3-d]pyrimidin-4-yl)piperidine-4-carboxamide]	–	–	990	6.6
NC(=O)NCCC(NC(=O)C1(N)CCN(c2ncnc3[nH]ccc23)CC1)c1ccc(Cl)cc1 (stereo not drawn) [Example 67, 4-amino-N-(1-(4-chlorophenyl)-3-ureidopropyl)-1-(7H-pyrrolo[2,3-d]pyrimidin-4-yl)piperidine-4-carboxamide]	–	–	890	7.7
N#CCC(NC(=O)C1(N)CCN(c2ncnc3[nH]ccc23)CC1)c1ccc(Cl)cc1 (stereo not drawn) [Example 68, 4-amino-N-(1-(4-chlorophenyl)-2-cyanoethyl)-1-(7H-pyrrolo[2,3-d]pyrimidin-4-yl)piperidine-4-carboxamide]	–	12	340	–
